This series can be described thus: Ring-closing metathesis (C=C formation) of fluorous-tagged (FDIPES) terminal dienes with Hoveyda-Grubbs 2nd generation catalyst (typically 2 mol%, 1-5 mol%), usually with 1,4-benzoquinone (4-10 mol%); quench P(CH2OH)3/Et3N/silica. The note with it: MTBE, 2.0 mM, 55.0 °C.

With `COc1ccc([C@H]2COCC=CCOC[C@@H](CO[Si](CCC(F)(F)C(F)(F)C(F)(F)C(F)(F)C(F)(F)C(F)(F)C(F)(F)C(F)(F)F)(C(C)C)C(C)C)N(S(=O)(=O)c3ccccc3[N+](=O)[O-])Cc3ccccc3CN(S(=O)(=O)c3ccccc3[N+](=O)[O-])C(=O)OC2)c(OC)c1` [32 (16+9; E/Z >98:<2)], the ring closure, isolated yield (from C=CCOC[C@@H](COC(=O)N(Cc1ccccc1CN([C@@H](COCC=C)CO[Si](CCC(F)(F)C(F)(F)C(F)(F)C(F)(F)C(F)(F)C(F)(F)C(F)(F)C(F)(F)F)(C(C)C)C(C)C)S(=O)(=O)c1ccccc1[N+](=O)[O-])S(=O)(=O)c1ccccc1[N+](=O)[O-])c1ccc(OC)cc1OC, 19-membered ring, 36.0 h) was determined as 88%.
Where the note is “from C=CCC[C@@H](O[Si](C)(C)C(C)(C)C)[C@H](C)CN(Cc1cccc(CN([C@H](CC=C)CO[Si](CCC(F)(F)C(F)(F)C(F)(F)C(F)(F)C(F)(F)C(F)(F)C(F)(F)C(F)(F)F)(C(C)C)C(C)C)S(=O)(=O)c2ccccc2[N+](=O)[O-])c1)S(=O)(=O)C(F)(F)F, 16-membered ring, 4.0 h”, `CC(C)[Si](CCC(F)(F)C(F)(F)C(F)(F)C(F)(F)C(F)(F)C(F)(F)C(F)(F)C(F)(F)F)(OC[C@H]1CC=CCC[C@@H](O[Si](C)(C)C(C)(C)C)[C@H](C)CN(S(=O)(=O)C(F)(F)F)Cc2cccc(c2)CN1S(=O)(=O)c1ccccc1[N+](=O)[O-])C(C)C` [29 (14+11; E/Z 15:85)] returned a ring closure, isolated yield of 78%.
With `CC(C)[Si](CCC(F)(F)C(F)(F)C(F)(F)C(F)(F)C(F)(F)C(F)(F)C(F)(F)C(F)(F)F)(OC[C@H]1CC=CCCN(S(=O)(=O)C(F)(F)F)Cc2ccccc2CN1S(=O)(=O)c1ccccc1[N+](=O)[O-])C(C)C` [26 (13+12; E/Z >98:<2)], the ring closure, isolated yield (from C=CCCN(Cc1ccccc1CN([C@H](CC=C)CO[Si](CCC(F)(F)C(F)(F)C(F)(F)C(F)(F)C(F)(F)C(F)(F)C(F)(F)C(F)(F)F)(C(C)C)C(C)C)S(=O)(=O)c1ccccc1[N+](=O)[O-])S(=O)(=O)C(F)(F)F, 12-membered ring, 6.0 h) is 76%.
As to `COc1ccc([C@H]2COCC=CCOC[C@H](CO[Si](CCC(F)(F)C(F)(F)C(F)(F)C(F)(F)C(F)(F)C(F)(F)C(F)(F)C(F)(F)F)(C(C)C)C(C)C)N(S(=O)(=O)c3ccccc3[N+](=O)[O-])Cc3cccc(c3)CN(S(=O)(=O)c3ccccc3[N+](=O)[O-])C(=O)OC2)c(OC)c1` [36 (17+9; E/Z 25:75)], for the setting “from C=CCOC[C@@H](COC(=O)N(Cc1cccc(CN([C@H](COCC=C)CO[Si](CCC(F)(F)C(F)(F)C(F)(F)C(F)(F)C(F)(F)C(F)(F)C(F)(F)C(F)(F)F)(C(C)C)C(C)C)S(=O)(=O)c2ccccc2[N+](=O)[O-])c1)S(=O)(=O)c1ccccc1[N+](=O)[O-])c1ccc(OC)cc1OC, 20-membered ring, 24.0 h”, the ring closure, isolated yield was 76%.
For the setting “from C=CCCN(Cc1ccccc1CN([C@@H](COCC=C)CO[Si](CCC(F)(F)C(F)(F)C(F)(F)C(F)(F)C(F)(F)C(F)(F)C(F)(F)C(F)(F)F)(C(C)C)C(C)C)S(=O)(=O)c1ccccc1[N+](=O)[O-])S(=O)(=O)C(F)(F)F, 14-membered ring, 36.0 h”, `CC(C)[Si](CCC(F)(F)C(F)(F)C(F)(F)C(F)(F)C(F)(F)C(F)(F)C(F)(F)C(F)(F)F)(OC[C@@H]1COCC=CCCN(S(=O)(=O)C(F)(F)F)Cc2ccccc2CN1S(=O)(=O)c1ccccc1[N+](=O)[O-])C(C)C` [35 (16+12; E/Z 70:30)] gave a ring closure, isolated yield of 98%.
In turn, `CC(C)[Si](CCC(F)(F)C(F)(F)C(F)(F)C(F)(F)C(F)(F)C(F)(F)C(F)(F)C(F)(F)F)(OC[C@H]1CC=CCC[C@@H](O[Si](C)(C)C(C)(C)C)[C@H](C)C(=O)N(S(=O)(=O)c2ccccc2[N+](=O)[O-])CC2=CC=C(CN1S(=O)(=O)c1ccccc1[N+](=O)[O-])S2)C(C)C` [3 (from 2; E/Z 65:35)] yielded a ring closure, isolated yield (from C=CCC[C@@H](O[Si](C)(C)C(C)(C)C)[C@H](C)C(=O)N(Cc1ccc(CN([C@H](CC=C)CO[Si](CCC(F)(F)C(F)(F)C(F)(F)C(F)(F)C(F)(F)C(F)(F)C(F)(F)C(F)(F)F)(C(C)C)C(C)C)S(=O)(=O)c2ccccc2[N+](=O)[O-])s1)S(=O)(=O)c1ccccc1[N+](=O)[O-], 16-membered ring, 16.0 h) of 40%.
For `COc1ccc([C@H]2COCC=CC[C@H](CO[Si](CCC(F)(F)C(F)(F)C(F)(F)C(F)(F)C(F)(F)C(F)(F)C(F)(F)C(F)(F)F)(C(C)C)C(C)C)N(S(=O)(=O)c3ccccc3[N+](=O)[O-])Cc3cccc(c3)CN(S(=O)(=O)c3ccccc3[N+](=O)[O-])C(=O)OC2)c(OC)c1` [27 (14+9; E/Z 60:40)], under “from C=CCOC[C@@H](COC(=O)N(Cc1cccc(CN([C@H](CC=C)CO[Si](CCC(F)(F)C(F)(F)C(F)(F)C(F)(F)C(F)(F)C(F)(F)C(F)(F)C(F)(F)F)(C(C)C)C(C)C)S(=O)(=O)c2ccccc2[N+](=O)[O-])c1)S(=O)(=O)c1ccccc1[N+](=O)[O-])c1ccc(OC)cc1OC, 18-membered ring, 24.0 h”, the ring closure, isolated yield came to 56%.
For `CC(C)[Si](CCC(F)(F)C(F)(F)C(F)(F)C(F)(F)C(F)(F)C(F)(F)C(F)(F)C(F)(F)F)(OC[C@H]1CC=CCOc2ccccc2COC(=O)N(S(=O)(=O)c2ccccc2[N+](=O)[O-])CC2=CC=C(CN1S(=O)(=O)c1ccccc1[N+](=O)[O-])S2)C(C)C` [31 (15+10; E/Z >98:<2)], the ring closure, isolated yield (from C=CCOc1ccccc1COC(=O)N(Cc1ccc(CN([C@H](CC=C)CO[Si](CCC(F)(F)C(F)(F)C(F)(F)C(F)(F)C(F)(F)C(F)(F)C(F)(F)C(F)(F)F)(C(C)C)C(C)C)S(=O)(=O)c2ccccc2[N+](=O)[O-])s1)S(=O)(=O)c1ccccc1[N+](=O)[O-], 18-membered ring, 16.0 h) stood at 60%.
`CC(C)[Si](CCC(F)(F)C(F)(F)C(F)(F)C(F)(F)C(F)(F)C(F)(F)C(F)(F)C(F)(F)F)(OC[C@H]1COCC=CCCN(S(=O)(=O)C(F)(F)F)Cc2cccc(c2)CN1S(=O)(=O)c1ccccc1[N+](=O)[O-])C(C)C` [38 (17+12; E 55% + Z 15%)] displayed a ring closure, isolated yield (from C=CCCN(Cc1cccc(CN([C@H](COCC=C)CO[Si](CCC(F)(F)C(F)(F)C(F)(F)C(F)(F)C(F)(F)C(F)(F)C(F)(F)C(F)(F)F)(C(C)C)C(C)C)S(=O)(=O)c2ccccc2[N+](=O)[O-])c1)S(=O)(=O)C(F)(F)F, 15-membered ring, 48.0 h) of 70%.
Take `CC(C)[Si](CCC(F)(F)C(F)(F)C(F)(F)C(F)(F)C(F)(F)C(F)(F)C(F)(F)C(F)(F)F)(OC[C@@H]1COCC=CCC[C@@H](O[Si](C)(C)C(C)(C)C)[C@H](C)CN(S(=O)(=O)C(F)(F)F)Cc2ccccc2CN1S(=O)(=O)c1ccccc1[N+](=O)[O-])C(C)C` [34 (16+11; E/Z >98:<2)]: the ring closure, isolated yield (from C=CCC[C@@H](O[Si](C)(C)C(C)(C)C)[C@H](C)CN(Cc1ccccc1CN([C@@H](COCC=C)CO[Si](CCC(F)(F)C(F)(F)C(F)(F)C(F)(F)C(F)(F)C(F)(F)C(F)(F)C(F)(F)F)(C(C)C)C(C)C)S(=O)(=O)c1ccccc1[N+](=O)[O-])S(=O)(=O)C(F)(F)F, 17-membered ring, 16.0 h) is 61%.

These data come from article PMC5488202.
